Assay results reported in patent publication US9518271B2, “Lentiviral-based vector and its use in directed evolution of genomic regions, genes and polynucleotides” (CENTRE NATIONAL DE LA RECHERCHE SCIENTIFIQUE, priority 2009, dated 2016).

How the values were obtained:
[1] = tested on: Jurkat SLP-76−/−NFAT-luc cell clone; experiment: Luciferase induction in Jurkat SLP-76-/- NFAT-luc cell clone; type: cell-based; details: NFAT binding site-driven luciferase; PMA and Calcimycine applied together
Excerpt: (§1) Concerning the screening based on the two luciferase-based readouts (either the one based on transcription driven by the NFAT or by IL2), the inventors have constructed two cell lines which as such are also part of the present invention: • the Jurkat SLP-76−/−plL2-luc cell clone, deposited at the CNCM (Paris, France) under accession number I-4236 on Oct. 30, 2009, in the name of Institut Pasteur, 25-28 rue du Docteur Roux, 75724 Paris Cedex 15, and resulting from the introduction in Jurkat J14 cells (SLP-76−/−) of the firefly luciferase gene under the control of two copies of the IL2 promoter; and • the Jurkat SLP-76−/−NFAT-luc cell clone, deposited at the CNCM under accession number I-4237 on Oct. 30, 2009, in the name of Institut Pasteur, 25-28 rue du Docteur Roux, 75724 Paris Cedex 15, and resulting from the introduction in Jurkat J14 cells (SLP-76−/−) of the firefly luciferase gene preceded by three copies of the NFAT binding site.

[2] = tested on: Jurkat SLP-76−/−plL2-luc cell clone; experiment: Luciferase induction in Jurkat SLP-76-/- pIL2-luc cell clone; type: cell-based; details: IL2 promoter-driven luciferase; PMA and Calcimycine applied together
Excerpt: as §1

Messa 10K cells [3] = details: Messa 10K cells lacking functional dCK; read-out: Gemcitabine 1050; cited from earlier work
HEK 293T cells [4] = experiment: Cell death (MTT assay) of HEK 293T clones carrying dCK variants exposed to AraC; type: cell-based, human; details: increasing concentrations of AraC, 72 h, FIG. 8
Excerpt: FIG. 8 discloses the cell survival with regard to increasing concentrations of AraC (μM) in presence of the wild type dCK gene (white triangles and solid thick curve) or variants containing point mutations or deletion in the dCK gene (other curves). Each plot represents the average of three independent experiments.
(§2) 80 individual cellular clones at the F17 generation, obtained after transduction of 293T cells at a low multiplicity of infection (and therefore carrying a single variant of the target polynucleotide) have been isolated. The 80 clones have been tested for the kinetic of cell death induced after their exposal to different concentrations of the two anti-cancer drugs, AraC and Gemcitabine, which are cytidine analogues (the natural substrate of dCK) as follows.
Individual clones have been isolated after transduction of HEK 293T cells at low multiplicity of transduction (m.o.i.) and seeding of the transduced cells at limiting dilutions in 96-well plates. […] Seventy-two hours after exposure, cell death has been evaluated for each independent clone and for each drug treatment condition using the MTT assay (Promega) that is a colorimetric test used to quantify cell viability and proliferation. A relative rate of cell death has been calculated for each clone, with respect to the values observed in the plate where no drug was included. […]

HEK 293T cells [5] = experiment: Cell death (MTT assay) of HEK 293T clones carrying dCK variants exposed to Gemcitabine; type: cell-based, human; details: 10 nM Gemcitabine, average of 4 independent experiments
Excerpt: as §2
Individual clones have been isolated after transduction of HEK 293T cells at low multiplicity of transduction (m.o.i.) and seeding of the transduced cells at limiting dilutions in 96-well plates. Individual cell clones growing in the presence of puromycin have then been expanded and seeded in parallel in several replicated 96-well plates. All these plates, with the exception of one to use as control, have been exposed to the anticancer drug at different concentrations, while the control plate has been maintained in the absence of drug. Seventy-two hours after exposure, cell death has been evaluated for each independent clone and for each drug treatment condition using the MTT assay (Promega) that is a colorimetric test used to quantify cell viability and proliferation. A relative rate of cell death has been calculated for each clone, with respect to the values observed in the plate where no drug was included. […]

Messa 10K cells [6] = experiment: Sensitivity to Gemcitabine of Messa 10K cells transduced with dCK variants; type: cell-based, human
Method: FIG. 10 discloses (A) the cell survival with regard to increasing concentrations of Gemcitabine (nM) in untransduced Messa 10K cells (grey solid line), in presence of the wild type dCK gene (large dashed lines) or in presence of dCK G12 variants gene (black solid lines); (B) the survival of Messa 10K cells in presence of 75 nM Gemcitabine in untransduced Messa 10K cells (Messa10K), in Messa 10K cells transduced with a viral vector carrying a wild type dCK gene (M-dCK), in Messa 10K cells transduced with a viral vector carrying the E8 variant dCK gene with mutations G>A 739 et C>A 745 (M-E8) or in Messa 10K cells transduced with a viral vector carrying the G12 variant dCK gene (M-G12), and (C) Western Blot to detect dCK expression on cell lysates, using a polyclonal rabbit antibody; M: untransduced Messa10K cells; M-dCK: Messa10K transduced with a vector carrying the wt dCK gene (4 independent populations); M-G12: Messa10K transduced with a vector carrying the G12 mutant (4 independent populations).
FIG. 11 discloses the cell survival with regard to increasing concentrations of Gemcitabine (nM) in untransduced Messa10K cells (small dashed line), in Messa10K cells transduced with a vector carrying the wt dCK gene (large dashed line; n=5), in Messa10K cells transduced with a vector carrying the sequence of the dCK G12 variant re-inserted in a wild-type backbone (light grey line; n=5), in Messa10K cells transduced with a vector rescued from the 293T-G12-F16 cell line (dark grey line; n=5) and in Messa10K cells transduced with a vector rescued from the 293T-G12-F17 cell line (solid black line; n=5). […]
For these reasons, a strategy for the screening on Messa 10K cells (illustrated in FIG. 9) was set up, aiming at averaging the epigenetic effects possibly influencing the final phenotype by analysing a population of target cells containing the same dCK variant inserted in different sites of the genome. […] The totality of the clones of the same variant were cultivated and analysed for the sensitivity to Gemcitabine in the assay previously described. […]

CNc1ccc2oc(C[C@H]3O[C@@]4(CC[C@H]3C)O[C@H]([C@H](C)C(=O)c3ccc[nH]3)[C@H](C)C[C@H]4C)nc2c1C(=O)O [Calcimycine]
induction of luciferase [1]: strong induction
induction of luciferase [2]: strong induction

Nc1ccn([C@@H]2O[C@H](CO)[C@@H](O)C2(F)F)c(=O)n1 [Gemcitabine]
IC50 (Messa 10K cells [3]): 11 µM

CCCCCCCCCCCCCC(=O)O[C@@H]1[C@@H](C)[C@@]2(O)[C@@H](C=C(CO)C[C@]3(O)C(=O)C(C)=C[C@@H]23)[C@@H]2C(C)(C)[C@]12OC(C)=O [Phorbol Myristate Acetate]
induction of luciferase [1]: strong induction
induction of luciferase [2]: strong induction

G7: dCK variant with a G to A transition at position 521, leading to the G174E variation at the amino acid level [Clone G7]
cell death induced by AraC compared with wt dCK (HEK 293T cells [4]): clear tendency to induce cell death

G12: dCK variant with a G to A transition at position 511 (E171K at the amino acid level) [Clone G12]
ratio of cell survival in G12 cells/dCK cells (HEK 293T cells [5]): 0.50±0.11
cell death ratio (Messa 10K cells [6]; 75 nM Gemcitabine, transduced Messa 10K cells, FIG. 10B): 90%
sensitivity to Gemcitabine conferred after re-insertion in a wild type lentiviral vector (Messa 10K cells [6]; G12 subcloned from cell line F16, Messa 10K cells, FIG. 11): maintains the ability to confer increased sensitivity to Gemcitabine
cell death by Gemcitabine compared with wild type dCK (Messa 10K cells [6]; transduced Messa 10K cells, four rounds of screening, FIG. 10A/10B): cell death ratio higher than the one induced from a wild type dCK
